Measurements from EP0546475A1, “Biologically active pseurotin A and D, new metabolites from Aspergillus fumigatus, process for their preparation and their use as apomorphine antagonists” (HOECHST AKTIENGESELLSCHAFT, priority 1991, dated 1993).

Columns and labels:
[1] = tested on: durch Apomorphin verursachten Kletterns; experiment: Inhibition of apomorphine-induced climbing in mice (apomorphine antagonism); format: in vivo, Mäusen; conditions: test substance given 30 min (i.p.) or 60 min (p.o.) before apomorphine, dose of test substance not given
Experimental: Test auf biologische Aktivität von Pseurotin A und D: • Die Wirkung der Verbindungen der Formel I und 11 als Apomorphin Antagonisten wird an Mäusen getestet. Hierzu wird zunächst Apomorphin als 1 %ige Lösung (Verdünnungsmittel: Tylose, z. B. Methocel, Hoechst AG, Frankfurt, Deutschland)) einmalig […] injiziert. Die Dosis ist so gewählt, daß sie bei 95 % der Mäuse für ca. 30 Minuten eine anhaltende Klettertätigkeit auslöst (1,5 mg Apomorphin/kg Maus; subcutane Injektion). Tiere, die noch vor der Apomorphingabe eine konstante Klettertätigkeit aufweisen, werden nicht im Test berücksichtigt. Pseurotin A und/oder D wird 30 bzw. 60 Min. vor Apomorphin appliziert (i.p. bzw. p.o.). Es wird viermal abgelesen: unmittelbar vor sowie 10,20 und 30 Min. nach Apomorphin-Injektion. Dabei wird das Kletterverhalten pro Maus beurteilt: • Testkriterium ist, ob eine Hemmung des durch Apomorphin verursachten Kletterns eintritt.

[2] = Stability in the solid state and in solution; format: physicochemical; conditions: for Stabilität im festen Zustand: solid state; for Stabilität in Lösungen: solutions, pH range between 3 and 8, in particular 5 and 7
From the text: Die Verbindungen der Formel 1 oder 11 ist im festen Zustand und in Lösungen im pH-Bereich zwischen 3 und 8, insbesondere 5 und 7, stabil und läßt sich damit in übliche galenische Zubereitungen einarbeiten.

[3] = Solubility in organic solvents; format: physicochemical; conditions: in CH2C12, CHCl3, Essigsäureethylester, Aceton, Ethanol und Isopropanol; isolated as amorphous solid
From the text: Die Pseurotine A und D wurden als amorpher Feststoff isoliert und sind z.B. löslich in CH2C12, CHCl3, Essigsäureethylester, Aceton, Ethanol und Isopropanol.

[4] = 10 min after apomorphine (1,5 mg Apomorphin/kg Maus), seen in the majority (Mehrzahl) of treated mice
[5] = 20 min after apomorphine (1,5 mg Apomorphin/kg Maus)

SMILES	Kletterverhalten pro Maus (Hemmung des durch Apomorphin verursachten Kletterns) [1, 4]	Kletterverhalten pro Maus (Hemmung des durch Apomorphin verursachten Kletterns) [1, 5]	Stabilität im festen Zustand [2]	Stabilität in Lösungen [2]	Löslichkeit [3]
CC/C=C\[C@H](O)[C@H](O)C1=C(C)C(=O)[C@]2(O1)C(=O)N[C@@](OC)(C(=O)c1ccccc1)[C@@H]2O [Pseurotin A]	nur noch 1 oder 2 Pfoten an der Wand	nahezu alle Tiere deutliche Symptome in Form der Kletterhemmung (4 Pfoten am Boden)	stabil	stabil	löslich
CCC(O)C=C[C@H](O)C1=C(C)C(=O)[C@]2(O1)C(=O)N[C@@](OC)(C(=O)c1ccccc1)[C@@H]2O (stereo partly shown) [Pseurotin D]	nur noch 1 oder 2 Pfoten an der Wand	nahezu alle Tiere deutliche Symptome in Form der Kletterhemmung (4 Pfoten am Boden)	stabil	stabil	löslich
